Measurements as given in ChEMBL document CHEMBL4689842, “EUbOPEN Chemogenomics Library wave 1” (2021).

Columns and labels:
Fibroblast = test: Incucyte cell viability with human fibroblast; assay type: toxicity, cell-based; conditions: 10 µM, compound concentration 10 uM
HEK-293T = test: Incucyte cell viability with HEK293T; assay type: toxicity, cell-based; conditions: human, 10 µM, compound concentration 10 uM
[1] = 0 h, replicate number 1, timepoint 0 hours
[2] = 6 h, replicate number 1, timepoint 6 hours
[3] = 6 h, replicate number 2, timepoint 6 hours
[4] = 12 h, replicate number 1, timepoint 12 hours
[5] = 18 h, replicate number 1, timepoint 18 hours
[6] = 24 h, replicate number 1, timepoint 24 hours
[7] = 0 h, replicate number 2, timepoint 0 hours
[8] = 18 h, replicate number 2, timepoint 18 hours
[9] = 24 h, replicate number 2, timepoint 24 hours
[10] = 12 h, replicate number 2, timepoint 12 hours
Note: filed as whole numbers so only -1 and 0 and 1 occur.

Row | SMILES | Growth Rate (Fibroblast; [1]) | Growth Rate (Fibroblast; [2]) | Growth Rate (Fibroblast; [3]) | Growth Rate (Fibroblast; [4]) | Growth Rate (Fibroblast; [5]) | Growth Rate (Fibroblast; [6]) | Growth Rate (HEK-293T; [7]) | Growth Rate (HEK-293T; [2]) | Growth Rate (HEK-293T; [4]) | Growth Rate (HEK-293T; [5]) | Growth Rate (HEK-293T; [6]) | Growth Rate (Fibroblast; [7]) | Growth Rate (Fibroblast; [8]) | Growth Rate (Fibroblast; [9]) | Growth Rate (HEK-293T; [1]) | Growth Rate (Fibroblast; [10]) | Growth Rate (HEK-293T; [10])
1 | Cc1ccc2c(c1)c1c(n2CCc2ccc(C)nc2)CCN(C)C1 [LATREPIRDINE] | 0 | 1 | 0 | 0 | 0 | 0 | 0 | 0 | 0 | 0 | 0 |  |  |  |  |  | 
2 | C[C@]1(O)C[C@@H](c2nc(-c3ccc4ccc(-c5ccccc5)nc4c3)c3c(N)nccn32)C1 [LINSITINIB] |  | 1 |  | 1 |  | 1 | 1 | 0 | 0 | 0 | 0 | 0 | 1 |  |  |  | 
3 | CCc1nn(CCCN2CCN(c3cccc(Cl)c3)CC2)c(=O)n1CCOc1ccccc1.Cl [NEFAZODONE HYDROCHLORIDE] | 0 | 0 |  | 0 | 0 | 0 | 0 | 0 | 0 | 0 | 0 |  |  |  |  |  | 
4 | COC(=O)C1=C(C)NC(C)=C(C(=O)OCCCN2CCC(c3ccccc3)(c3ccccc3)CC2)[C@H]1c1cccc([N+](=O)[O-])c1 [NIGULDIPINE] | 0 | 0 |  | 0 | 0 | 0 | 0 | 0 | 0 | 0 | 0 |  | 1 | 1 |  |  | 
5 | CC(C)CC(=O)Nc1[nH]nc2c1CN(C(=O)C1CCN(C)CC1)C2(C)C [PHA-793887] | 0 | 0 |  | 0 | 0 | 0 |  | 0 | 0 | 0 | 0 |  |  |  | 1 |  | 
6 | CCCSc1nc(N[C@@H]2C[C@H]2c2ccc(F)c(F)c2)c2nnn([C@@H]3C[C@H](OCCO)[C@@H](O)[C@H]3O)c2n1 [TICAGRELOR] | 0 | 0 |  | 0 | 0 | 0 | 0 | 0 | 0 | 0 | 0 |  |  |  |  |  | 
7 | CC(C)(C)NC[C@H](O)COc1nsnc1N1CCOCC1 [TIMOLOL] | 0 | 1 | 0 | 1 | 1 | 1 |  | 0 | 0 | 0 | 0 | 1 | 0 | 0 | 0 | 0 | 1
